Laboratory results as given in publication PMC4418665, “Cyclization of the Urokinase Receptor-Derived Ser-Arg-Ser-Arg-Tyr Peptide Generates a Potent Inhibitor of Trans-Endothelial Migration of Monocytes” (PLoS ONE, 2015).
Peptide text beside a SMILES is read from it.

Key:
[1] = system: THP-1 cells crossing HUVEC monolayer; assay: Trans-endothelial migration assay, xCELLigence RTCA; format: cell-based, human; conditions: 10 nM peptide, 10% FBS, monitored 10 hours, Cell Index, quadruplicate
Source text: (§1) Diapedesis of leukocytes plays a key role in the pathogenesis of inflammatory diseases and migration of monocytes from the blood into the sub-endothelial space is one of the earliest events. We investigated the effects of [SRSRY] on the number and morphology of THP-1 seeded to an endothelial monolayer. […] (Fig 5A). To examine the changes in morphology in more detail and quantify monocytes interacting with endothelial monolayer, we performed a subset of experiments using GFP-tagged THP-1, labeling co-cultures for F-actin and recording images by a confocal microscope. […] To further ascertain if [SRSRY] reduces trans-endothelial migration of monocytes, the ability of THP-1 cells to cross an endothelial monolayer was analyzed using the xCELLigence RTCA technology as previously described. […] At this time, reduction of impedance values, due to invading cells that interrupt monolayers was monitored in real-time for 10 hours. […]
(§2) Fig 5 [SRSRY] prevents trans-endothelial migration of THP-1 cells. […] Representative images of co-cultures analyzed by phase contrast microscopy at 100x with Scale bar: 50 μm (A) or stained with rhodamine- phalloidin and recorded by a confocal microscope (z-series with 0.25 μm intervals) at 630x with Scale bar: 10 μm (B). […] Fluorescent THP-1 cells which were adherent on the endothelial monolayer were counted on 10 fields/slide at 200x magnification. […]

[2] = Serum stability in human serum (RP-HPLC); format: in vitro ADME; conditions: 37°C, peptide 10^-2 mol/L, acetonitrile precipitation; for remaining at 1 h: RP-HPLC C18, % of concentration at time 0, read-out: residual concentration after one hour of exposure to serum; for remaining at 24 h: RP-HPLC C18, % of concentration at time 0, read-out: residual concentration after 24 hours in serum
Experimental: Cyclization of peptides listed in Table 1was obtained as described in the Material and Methods, using the strategy depicted in the S1 Fig. The stability of the linear peptide Ser-Arg-Ser-Arg-Tyr (SRSRY) and cyclized peptide Ser-Arg-Ser-Arg-Tyr [SRSRY] in human serum was investigated through incubation of the peptide at a 10^–2 mol/L in human serum and samples were taken at different time points and analysed by Reversed-phase chromatography (RP-HPLC). Serum-dependent degradation of peptides was monitored for up to 24 hours.
Fig 1 Stability of SRSRY and [SRSRY] peptides in human serum. The stability of [SRSRY] and SRSRY was performed by the injection of the peptide at a 10^–2 mol/L in human serum at 37°C. Intervals of analysis by RP-HPLC on the compound incubated in serum were carried out growing with time from 1 to 24 hours. Values are expressed as a percentage of peptide concentration assessed at time 0. [SRSRY]
The stability of SRSRY and [SRSRY] was investigated in human serum. The peptides were incubated at 37°C in human serum at a concentration of 10^-2mol/L. Aliquots ([…]) of serum were removed at time points varying from 0, 1, 2, 4, 6, and 24 hours and acetonitrile ([…]) was added to each aliquot before centrifuging (13000 rpm, 15 min). Aliquots ([…]) of the supernatant were then analyzed by RP-HPLC after passing through Phenomenex Luna 100A C18 5μ, linear gradient from 0–90% acetonitrile in water over 25 minutes.

[3] = system: GFP-tagged THP-1 cells on endothelial monolayer (HUVECs); assay: Monocyte diapedesis: GFP-tagged THP-1 cells on HUVEC monolayer; format: cell-based, human; conditions: 10 nM peptide, 30 minutes, 37°C, 10 fields/slide
Source text: as §1, §2

In the case of N=C(N)NCCC[C@@H]1NC(=O)[C@H](CO)NC(=O)[C@H](Cc2ccc(O)cc2)NC(=O)[C@H](CCCNC(=N)N)NC(=O)[C@H](CO)NC1=O [[SRSRY], [Ser-Arg-Ser-Arg-Tyr]] (cyclo(RSRYS)), the “reduction of THP-1 trans-endothelial migration” value [1] is reported as 35%, the remaining at 1 h [2] is reported as less than 85% and the remaining at 24 h [2] is reported as greater than 80%. For the same compound, the “reduction of GFP-THP-1 cell number interacting with endothelial monolayer” value [3] was 40%.
N=C(N)NCCC[C@H](NC(=O)[C@H](CO)NC(=O)[C@H](CCCNC(=N)N)NC(=O)[C@@H](N)CO)C(=O)N[C@@H](Cc1ccc(O)cc1)C(N)=O [SRSRY, H-Ser-Arg-Ser-Arg-Tyr-NH2] (H-SRSRY-NH2) showed a remaining at 1 h [2] of less than 75% and a remaining at 24 h [2] of less than 50%.
